Reference: patent US20160122406A1, “ANALOGS OF PITUITARY ADENYLATE CYCLASE-ACTIVATING POLYPEPTIDE (PACAP) AND METHODS FOR THEIR USE” (THE ADMINISTRATORS OF THE TULANE EDUCATIONAL FUND, priority 2013, published 2016)
Entries after “also recorded” stand apart in the source; their conditions may differ. Where two headings read alike, the source gives them in different places.

How the values were obtained:
[1] = rat, in vivo, iv; cited from earlier work
Male C57BL/6 mice = test: Cisplatin-induced nephrotoxicity in mice; type: in vivo
Protocol: (§1) Male C57BL/6 mice were given a single intraperitoneal injection of 20 mg/kg of cisplatin. Twenty micrograms of PACAP38 were given intraperitoneally 1 hour before the injection of cisplatin and additional doses were given at 24 and 48 hours after the initial dose. The control group of mice was injected intraperitoneally with the same volume of saline as for the injections of cisplatin and PACAP38 on the same schedule. The mice were euthanized 24 hours after the final injection of PACAP38. The serum creatinine levels were determined at sacrifice with isotope dilution liquid chromatography mass spectroscopy/mass spectroscopy. Each value represents the mean plus/minus the standard error of eight determinations. ** p<0.01 compared to the group treated only with cisplatin.
as §1, with “cystatin C” for “creatinine”, “commercial ELISA kits.” for “isotope dilution liquid chromatography mass spectroscopy/mass spectroscopy.”
as §1, with “body weights of the mice” for “serum creatinine levels”, “determined 1-2 hours before the first injection of PACAP38 and” for “determined”, “sacrifice.” for “sacrifice with isotope dilution liquid chromatography mass spectroscopy/mass spectroscopy.”, “p<0.01 and * p<0.05” for “p<0.01”
as §1, with “kidney” for “serum creatinine”, “levels of TNF-α” for “levels”, “commercial ELISA kits.” for “isotope dilution liquid chromatography mass spectroscopy/mass spectroscopy.”
as §1, with “kidney” for “serum creatinine”, “levels of IFN-γ” for “levels”, “commercial ELISA kits.” for “isotope dilution liquid chromatography mass spectroscopy/mass spectroscopy.”, “p<0.01 and * p<0.05” for “p<0.01”
Male C57BL/6 mice were given a single intraperitoneal injection of 20 mg/kg of cisplatin. Twenty micrograms of PACAP38 were given intraperitoneally 1 hour before the injection of cisplatin and additional doses were given at 24 and 48 hours after the initial dose. […]

rat = details: 48 hours after start, cited from earlier work
[2] = cisplatin 20 mg/kg i.p., 20 micrograms peptide i.p. 1 h before and 24 and 48 h after, ELISA at sacrifice

[^125I]-PACAP38: 125I-radiolabelled PACAP38 used for half-life in rats
half-life in the bloodstream [1]: 5 to 6 min

PACAP38: native human pituitary adenylate cyclase-activating polypeptide, α-amidated peptide with 38 amino acids
cytoprotection against cisplatin-induced nephrotoxicity / kidney injury (Male C57BL/6 mice; PACAP38 compared with [Iac1]PACAP38): approximately equipotent; also recorded: potent cytoprotectants | cisplatin-induced increase in kidney levels of interferon γ (IFN-γ) (Male C57BL/6 mice; [2]): reduction | cisplatin-induced increase in kidney levels of monocyte chemotactic protein 1 (MCP-1, CCL2) (Male C57BL/6 mice; [2]): reduction | cisplatin-induced increase in kidney levels of tumor necrosis factor-α (TNF-α) (Male C57BL/6 mice; [2]): reduction | cisplatin-induced increase in serum cystatin C levels (Male C57BL/6 mice; [2]): reduction | cisplatin-induced body weight loss (Male C57BL/6 mice; cisplatin 20 mg/kg i.p., 20 micrograms peptide i.p. 1 h before and 24 and 48 h after, at sacrifice): reduction; also recorded: significantly reversed the weight lost | cisplatin-induced increase in serum creatinine levels (Male C57BL/6 mice; cisplatin 20 mg/kg i.p., 20 micrograms peptide i.p. 1 h before and 24 and 48 h after, at sacrifice 24 h after final injection): reduction | kidney function of cisplatin-injected mice (Male C57BL/6 mice; summary of FIGS. 3 and 4): significantly restored kidney function | inflammatory response in the kidney of cisplatin-injected mice (Male C57BL/6 mice; summary of FIGS. 6-8 (TNF-α, IFN-γ, MCP-1)): significantly blunted the inflammatory response | reduction of the infarct volume (rat; continuous i.v. infusion beginning 4 hours after start of 2-h MCAO): approximately 51% | reduction of the infarct volume (rat; continuous i.v. infusion beginning 8 hours after start of 2-h MCAO): ~22% | reduction of the infarct volume (rat; continuous i.v. infusion beginning 12 hours after start of 2-h MCAO): ~12%
